Experimental data reported in patent US20050059694A1, “New use of 11.28-dioxa-4-azatricyclo [22.3.1.04,9] octacos-18-ene derivatives and pharmaceutical compositions containing them” (Fujisawa Pharmaceutical Co., Ltd., priority 1987, published 2005).
≈ marks a conversion by molar mass, not a printed value.

Key:
[1] = system: oxazolone allergy (allergic contact dermatitis, DTH-reaction); assay: Oxazolone allergy (mouse), topical administration; assay type: in vivo; details: ethanol as solvent, pinna weight difference 24 hours after second exposure
Procedure: 1. Determination of the activity after topical administration in models of allergic or allergen-induced contact dermatitis (DTH-reaction) 1.1. Oxazolone Allergy (Mouse): 10 μl of a 2% oxazolone solution are applied onto the abdominal skin of mice for sensitization, 8 days later a second exposure with 10 μl of a 2% oxazolone solution is performed by application on the peripheral internal surface of the pinna. 20 minutes and 2 hours after the second exposure has released the challenge reaction, the test solution is applied at the site of the second exposure. Evaluation of the inhibition of inflammation with the test substance is effected by reference to an untreated group treated with the solvent used for dissolving the test substance, alone. 24 hours after the second exposure the animals are killed and the separated pinnae are weighted. The difference in weight between the two pinnae is used for evaluation; the individual differences in the test group and in the solvent control group are statistically compared (by simple variance analysis with subsequent Dunnet test by normal distribution test if normally distributed, otherwise by […] and Wilcoxon-Mann-Whitney's U-test). The activity of the test substance is indicated in %, based on mean values. […] Ethanol is used as solvent.

[2] = system: human polymorphonuclear neutrophil leukocytes; assay: Inhibition of FMLP-stimulated oxidative burst (chemiluminescence) in PMNL; assay type: cell-based; details: minimal inhibiting concentration with significant inhibition of all 3 chemiluminescence parameters; FMLP stimulus
Procedure: (§1) 3. Inhibition of the Oxidative Burst in Human Polymorphonuclear neutrophil leukocytes (inhibition of FMLP—or, respectively, A 23187-stimulated chemiluminescence):
(§2) Polymorphonuclear leukocytes (PMNL) are prepared from human peripheral blood (M. Schaude et al., Mycoses 31 (5) [1988]259-267). Stock solutions of the test substances (500 mg/l) are freshly prepared on the day of experiment in 5% DMSO/RPMI 1640. For the determination of the chemiluminescence (CL) with Biolumat LB 9505 the luminescence indicator DMNH is used. […] The CL-reaction is started by addition of either 100 μl of the peptide FMLP (4×10^−6 M) or of the calcium ionophor A 23187 (4×10^−6 M). […] 3 parameters are used for evaluation of the results: peak intensity of the radiated light, time span up to the peak and surface area under the reaction curve. As minimal inhibiting concentration the concentration of test substance is chosen where a significant inhibition of all 3 parameters can be observed (Table 4).

[3] = system: human polymorphonuclear neutrophil leukocytes; assay: Inhibition of A 23187-stimulated oxidative burst (chemiluminescence) in PMNL; assay type: cell-based; details: minimal inhibiting concentration with significant inhibition of all 3 chemiluminescence parameters; calcium ionophor A 23187 stimulus
Procedure: as §1, §2

TPA-induced dermatitis = TPA-induced dermatitis (mouse), topical administration; assay type: in vivo, NMRI mice; details: dimethylacetamide/acetone/ethanol (2/4/4), pinna weight difference 6 hours after irritant
Procedure: 2. Determination of the Activity after Topical Administration In the Irritant-Induced Dermatitis Model (Mouse) 2.1 TPA-induced Dermatitis: Skin irritation with TPA in test animals is a method for testing substances as to their antiinflammatory activity after local application (Maibach, Lowe, Ed. Models in Dermatology, Vol. 3 [1987] p. 86-92, Karger-Basel). NMRI mice are given 10 μl of a TPA solution on the inner and outer side of the right pinna (2×10 μl/mouse=2×0.5 μg TPA/mouse). The left pinnae remain untreated. Treatment is effected 30 min. after irritation, by application of 2×10 μl of test solution onto the irritated ear surfaces, as described above. The evaluation of the test group is performed by comparison with a group where the right pinna has been treated with only the irritating solution and with the solvent used for the test substance. 6 hours after application of the irritant the animals are killed, the pinnae separated and weighted. The difference in weight of the two pinnae is used for the evaluation, whereby the individual differences of the test groups are statistically compared with the individual differences of the control groups (as under 1.1.). The activity of the test substances is indicated in % on the basis of the average values. The solvent used is a mixture of dimethylacetamide, acetone and ethanol (2/4/4): […]

DNFB contact allergy = assay: DNFB allergy (swine), topical administration; assay type: in vivo; details: 5% preparation (solution in 15% dimethylformamide, 42.5% ethanol, 42.5% propylenglycol), applied topically 4 times
Procedure: On the 1st and 3rd day 100 μl each of a 10% DNFB preparation is applied onto the inner surface of the right and, respectively, left thigh. On the 14th day each swine is marked on the right and the left side of the back with circular markings of 5 cm in diameter (8 markings per animal) and 150 μl each of a 0.5% DNFB preparation is applied thereon. The substances are tested either in the form of galenical compositions or of a solution. The carriers are used in each case as placebo controls.
The test products are carefully applied 4 times (first 30 minutes, then 6, 24 and 32 hours after release of the challenge reaction). Prior to each application the test areas are evaluated with respect to reddenning, swelling and consistance. The coloration of the test areas is then determined quantitatively with a reflectometer, repeatedly. From the data on brightness (L*) and saturation (C*) the erythema index is computed according to the following formula: 100−L*×C*. The mean erythema index is a reflection of the activity according to the following formula: [formula]

human keratinocytes = assay: Inhibition of proliferation of human keratinocytes; assay type: cell-based
Procedure: 5. Inhibition of proliferation of human keratinocytes
Cultures of human keratinocytes are obtained by trypsination of human foreskin from newborns or obtained as to EpiPack from Clonetics Corp. (San Diego). The keratinocyte cultures are grown in culture flasks in a supplemented keratinocyte medium (KGM). The passages 3 to 5 of 80-90% confluent keratinocytes are resuspended in KGM at a concentration of 1×10^5 cells/ml, and either 0.1 ml each of this cell suspension is added into a 96-vells microtiter plate or 1 ml each of this cell suspension are added into a 24-wells plate in the presence of test substance. The cells are grown for 48 hours at 37° and 5% CO2. ^3H-thymidine is incorporated during the last 16 hours (microtiter plate, 1 μCi/well), the cells are checked for their morphology, washed thrice with ice-cold, deficient PBS and twice with trichloroacetic acid, solubilized in 100 μl 0.1 N NaOH containing 1% SDS, and the radioactivity is measured. Alternatively, cells from the 24-well plate are trypsinized (trypsin/EDTA), checked for viability by trypan blue exclusion, and triple aliquots are counted in a cell counter.

[4] = system: dermatitis induced by croton oil; assay: Dermatitis induced by croton oil (mouse), topical administration; assay type: in vivo, NMRI mice; details: dissolved in irritant solution, pinna weight difference 6 hours after irritant
Procedure: 2. Determination of the Activity after Topical Administration In the Irritant-Induced Dermatitis Model (Mouse) 2.2. Dermatitis Induced by Croton Oil Croton oil is often used, as TPA, in order to induce an irritant-induced dermatitis on which substances can be tested for their anti-inflammatory activity (Maibach, Love, Ed., Models in Dermatology, Vol. 3[1987]p. 86-92, Karger-Basel). NMRI-mice are given 15 μl of 0.23% croton oil (in a mixture of dimethylacetamide, acetone and ethanol 2/4/4) on the inner side of the right pinna. Treatment is effected simultaneously with the irritation, the test substance being dissolved in the solution of irritant applied at the auricular test site. Evaluation of the test group is performed by comparison of the inflammation with a group receiving only the irritant solution on the pinna. The animals are killed 6 hours after application of the irritant, the pinnae separated and weighted. The difference between the weights of the two individual pinnae is used for evaluation, by statistical comparison of the single differences in the test group with the single differences in the control group (as under 1.1.). The activity of the test substances is indicated in % based on average values.

[5] = system: TPA-induced PGE2 release from macrophages; assay: Inhibition of macrophage activation (TPA-induced PGE2 release); assay type: cell-based, NMRI mice; details: PGE2 release from TPA-stimulated mouse peritoneal macrophages
Procedure: 4. Inhibition of Macrophage Activation (Inhibition of TPA-induced PGE2 release)
Peritoneal exudate cells of NMRI mice pretreated 3 days earlier with 1.5 ml thioglycolate i.p. are harvested by peritoneal lavage, washed with deficient PBS and resuspended in DMEM medium supplemented with 10% FCS. 1×10^6 cells are transferred to each well of a 24-wells plate, and the cells are left to adhere 4 hours at 37° and 5% CO2. The cells are then washed twice with deficient PBS. The resultant, more than 95% pure macrophage population is stimulated with TPA ([…]) in DMEM-medium devoid of FCS. The conditioned media are centrifuged and the PGE2-contents determined using a ^125I-radioimmunotest. PGE2-release inhibition with the test substances is measured as percentage inhibition compared to the controls.

Row | SMILES | % inhibition ([1]; 0.005 % concentration) [%] | MIC (μM) (FMLP) [2] [µM] | MIC (μM) (A 23187) [3] [µM] | % inhibition (TPA-induced dermatitis; 1.2 % concentration) [%] | % inhibition (TPA-induced dermatitis; 3.6 % concentration) [%] | % inhibition ([4]; 0.4 % concentration) [%] | % inhibition ([4]; 1.2 % concentration) [%] | % inhibition ([4]; 3.6 % concentration) [%] | inhibition at 1 µM [5] [%] | other results
1 | C=CC[C@@H]1/C=C(\C)C[C@H](C)C[C@H](OC)[C@H]2O[C@@](O)(C(=O)C(=O)N3CCCC[C@H]3C(=O)O[C@H](/C(C)=C/[C@@H]3CC[C@@H](O)[C@H](OC)C3)[C@H](C)[C@@H](O)CC1=O)[C@H](C)C[C@@H]2OC [Compound A, 17-Allyl-1,14-dihydroxy-12-[2-(4-hydroxy-3-methoxycyclo-hexyl)-1-methylvinyl]-23,25-dimethoxy-13,19,21,27-tetramethyl-11,28-dioxa-4-azatricyclo[22.3.1.0^4,9]octacos-18-ene-2,3,10,16-tetraone] | 52 | 0.005 (≈ 0.00402 µg/mL) | 0.05 (≈ 0.0402 µg/mL) | 52 | 56 | 52 | 64 | 85 | 30 | % inhibition ([1]; 0.0005 % concentration): 35%; % inhibition ([1]; 0.002 % concentration): 38%; % inhibition ([1]; 0.01 % concentration): 65%; % inhibition ([1]; 0.13 % concentration): 65%; clinical evaluation of the test sites / activity (DNFB contact allergy): the treated areas can hardly be distinguished from the adjacent normal skin; inhibition at 0.5 µM (human keratinocytes; Homo sapiens, Keratinocyte, 0.5 μM, 48 hours, read-out: % inhibition compared to control): 57%; inhibition at 1 µM (human keratinocytes; Homo sapiens, Keratinocyte, 1 μM, 48 hours, read-out: % inhibition compared to control): 74%; inhibition at 5 µM (human keratinocytes; Homo sapiens, Keratinocyte, 5 μM, 48 hours, read-out: % inhibition compared to control): 94%; reduction in proliferation (human keratinocytes; concentration range from 0.5 to 5 μM): dose-dependent reduction in proliferation
2 | CCCC1C=C(C)CC(C)CC(OC)C2OC(O)(C(=O)C(=O)N3CCCCC3C(=O)OC(C(C)=CC3CCC(O)C(OC)C3)C(C)C(O)CC1=O)C(C)CC2OC (stereo not shown) [Compound B, 1,14-dihydroxy-12-[2-(4-hydroxy-3-methoxycyclohexyl)-1-methylvinyl]-23,25-dimethoxy-13,19,21,27-tetramethyl-17-propyl-11,28-dioxa-4-azatricyclo[22.3.1.0^4,9]octacos-18-ene-2,3,10,16-tetraone] | 60 | 0.01 (≈ 0.00806 µg/mL) | 0.01 (≈ 0.00806 µg/mL) | – | – | – | – | – | 60 | –
3 | C=CCC1C=C(C)CC(C)CC(OC)C2OC(O)(C(=O)C(=O)N3CCCCC3C(=O)OC(C(C)=CC3CCC(O)C(OC)C3)C(C)C=CC1=O)C(C)CC2OC (stereo not shown) [Compound C, 17-allyl-1-hydroxy-12-[2-(4-hydroxy-3-methoxycyclohexyl)-1-methylvinyl]-23,25-dimethoxy-13,19,21,27-tetramethyl-11,28-dioxa-4-azatricyclo[22.3.1.0^4,9]octacosa-14,18-diene-2,3,10,16-tetraone] | – | 0.5 (≈ 0.393 µg/mL) | 5 (≈ 3.93 µg/mL) | – | – | – | – | – | 60 | –
4 | C=CCC1C=C(C)CC(C)CC(OC)C2OC(O)(C(=O)C(=O)N3CCCCC3C(=O)OC(C(C)=CC3CCC(OC(C)=O)C(OC)C3)C(C)C(OC(C)=O)CC1=O)C(C)CC2OC (stereo not shown) [Compound D, 14-acetoxy-12-[2-(4-acetoxy-3-methoxycyclohexyl)-1-methylvinyl]-17-allyl-1-hydroxy-23,25-dimethoxy-13,19,21,27-tetramethyl-11,28-dioxa-4-azatricyclo[22.3.1.0^4,9]octacos-18-ene-2,3,10,16-tetraone] | – | <0.5 | 0.5 (≈ 0.444 µg/mL) | – | – | – | – | – | – | –
5 | C=CCC1C=C(C)CC(C)CC(OC)C2OC(O)(C(=O)C(=O)N3CCCCC3C(=O)OC(C(C)=CC3CCC(OC(C)=O)C(OC)C3)C(C)C(O)CC1=O)C(C)CC2OC (stereo not shown) [Compound E, 12-[2-(4-acetoxy-3-methoxycyclohexyl)-1-methylvinyl]-17-allyl-1,14-dihydroxy-23,25-dimethoxy-13,19,21,27-tetramethyl-11,28-dioxa-4-azatricyclo[22.3.1.0^4,9]octacos-18-ene-2,3,10,16-tetraone] | – | <0.5 | 0.05 (≈ 0.0423 µg/mL) | – | – | – | – | – | – | –
6 | COc1ccc2c(c1)c(CC(=O)O)c(C)n2C(=O)c1ccc(Cl)cc1 [Indomethacin, reference compound] | – | – | – | 26 | 31 | 11 | 63 | 96 | – | –
